Patent US12576155B2, “Senolytic and antiinflammatory prodrugs and methods of use thereof” (priority 2019, dated 2026)

Key:
[1] = tested on: replication-induced senescent mouse embryonic fibroblasts (MEFs) and their non-senescent counterparts; test: SSK1 metabolism analysis (release of gemcitabine, LC-MS/MS); type: in vitro ADME; details: 0.5 μM SSK1; senescent vs non-senescent MEFs; FIG. 1A
Description: To detect the release of gemcitabine from SSK1 in senescent and non-senescent cells, the metabolism analysis was performed as previous reported (Karampelas et al., Mol Pharmaceut 14, 674-685(2017)). Briefly, the senescent and non-senescent cells were incubated with 0.5 μM SSK1 in DMEM medium containing 10% FBS and 1% penicillin-streptomycin for the indicated time. Then the cells slightly washed with water for twice and then harvested. Cold methanol used to extract the compounds and samples were prepared after centrifugation. The concentration of gemcitabine was determined by LC-MS/MS analysis.

[2] = Serum biochemical test and routine blood analysis in old mice (toxicity); type: in vivo
Description: All drugs were mixed in 90% PBS, 5% Tween-80 (P1754, Sigma), and 5% polyethylene glycol (PEG) (81172, Sigma) and administered to mice by intraperitoneal (i.p.) injection. […] […] Gemcitabine was purchased from MCE.
For blood routine examination, 50 μl fresh blood was collected from each mouse and mixed with EDTA immediately. The blood samples were analyzed by Celltac Alpha MEK-6400 series hematology analyzers (Nihon Kohden, MEK-6400). For serum biochemical analysis, blood samples were collected, clotted for 2 hours at room temperature or overnight at 4° C., and then centrifuged (1000 g, 10 min) to gain serum. 200 μl serum was aliquot and analyzed of Alanine transaminase (ALT), aspartate transaminase (AST), uric acid (UA) and creatinine (CREA) by Chemistry Analyzer (Mindray, BS-350E).

[3] = tested on: SARS-CoV-2-infected rhesus macaques; test: SARS-CoV-2-infected rhesus macaques, late-stage SSK1 treatment (i.v. once a day 22 to 28 dpi); type: in vivo
Description: To evaluate the therapeutic effect of SSK1 on the recovery period of SARS-CoV-2 infection, we used nine rhesus macaques of three different ages as reported before (Lu et al., 2020). All the animals were inoculated with total 4.75 ml of 10^6 pfu/ml SARS-CoV-2 intratracheally (4.00 ml), intranasally (0.50 ml) and on conjunctiva (0.25 ml). The nine rhesus macaques were divided into three groups according to the treatments, which included vehicle (DMSO), low dosage (0.5 mg/kg) and high dosage (2.0 mg/kg) of SSK1, respectively. Each group randomly selected one young, one adult and one old monkey. The final grouping is presented as following: the vehicle-treated group, RM1 (young), RM2 (adult) and RM3 (old); 0.5 mg/kg SSK1-treated group, RM4 (young), RM5 (adult) and RM6 (old); 2.0 mg/kg SSK1-treated group, RM7 (young), RM8 (adult) and RM9 (old). […] For each group, vehicle (DMSO), low dosage SSK1 (0.5 mg/kg) and high dosage SSK1 (2.0 mg/kg) were administrated intravenously (i.v.) once a day from 22 to 28 dpi. Animals were anesthetized and clinical exams were performed daily. We recorded the body weight, anal temperature on each examination day and collected blood samples for hematology analysis as well as swabs form nasal, throat and rectal for virus quantitative detection. The monkeys were euthanized on 34, 35 and 36 dpi. We collected the bronchoalveolar lavage fluid (BALF) with 10 ml PBS (Gibco, Cat #21-040-CVC) and recorded the pathological changes of all organs. Tissue samples collected from all organs and the BALF were further analyzed.
100 mg/ml SSK1 dissolved in DMSO (Life Science, Cat #1087C114) was mixed in 95% PBS (Gibco, Cat #21-040-CVC), 5% Tween-80 (BioFroxx, Cat #1716) and administrated intravenously (i.v.) at the dosage of 0.5 mg/kg or 2.0 mg/kg to monkeys at the indicated time point (the injection finished within 5-10 minutes). DMSO mixed in 95% PBS (Gibco, Cat #21-040-CVC), 5% Tween-80 (BioFroxx, Cat #1716) was intravenously (i.v.) injected as vehicle.
The blood samples were collected from saphenous vein of hind limb of anaesthetized monkeys using 5 ml blood collection tube containing sodium citrate anti-coagulant for further analysis. For Complete Blood Count (CBC), Auto Hematology Analyzer (BC-5000 Vet, Mindray, China) was used. The white blood cells-related numbers and percentages of Neutrophil (Neu), Lymphocyte (Lym), Monocyte (Mon), Eosinophil (Eos), Basophil (Bas), and platelet-related items, platelet count (PLT), mean platelet volume (MPV), platelet distribution width (PDW), plateletcrit (PCT) were analyzed. For serum biochemical analysis, the blood was clotted for 30 min at 4° C. and centrifugated at 3,000×rpm for 15 min to obtain serum. The serum was used to analysis the alanine transaminase (ALT), aspartate transaminase (AST), alkaline phosphatase (ALP), uric acid (UA) and creatinine (CRE-E) by Chemistry Analyzer (Mindray, BS-350E).
The serum and BALF samples were collected for analysis of cytokine and chemokine. Concentration of granulocyte colony-stimulating factor (G-CSF), granulocyte-macrophage colony-stimulating factor (GM-CSF), interferon (IFN)-γ, interleukin (IL)-1 receptor antagonist, IL-1β, IL-2, IL-4, IL-5, IL-6, IL-8, IL-10, IL-12/23 (p40), IL-13, IL-15, IL-17, IL-18, monocyte chemotactic protein (MCP)-1, macrophage inflammatory protein (MIP)-1α, MIP-1β, soluble CD40-ligand (sCD40L), transforming growth factor (TGF)-α, tumor necrosis factor (TNF)-α, vascular endothelial growth factor (VEGF) were determined using the Non-Human Primate Cytokine MILLIPLEX map 23-plex kit (Millipore, Cat #PRCYTOMAG-40K) according to the manufacturer's instructions.
Autopsies of the rhesus macaques were performed according to a standard protocol. After the dissection, the major organs were grossly examined. The lung tissues were harvested, fixed in 10% neutral-buffered formalin solution, embedded in paraffin and 2 μm tissue sections were prepared. […]

Compound: CC(=O)OCC1O[C@@H](Oc2ccc(COC(=O)Nc3ccn([C@@H]4O[C@H](CO)C(O)C4(F)F)c(=O)n3)cc2[N+](=O)[O-])C(OC(C)=O)C(OC(C)=O)[C@H]1OC(C)=O (stereo partly drawn) [SSK1]
- Metabolism of SSK1 into gemcitabine [1]: specifically cleaved to release cytotoxic gemcitabine in senescent cells but not in non-senescent cells
- Systemic toxicities (serum biochemical test and routine blood analysis) ([2]; aged mice, high concentration (100 mg/kg) and high frequency, 5 weeks, 3 injections a week): no obvious systemic toxicities
- Apoptosis of β-gal positive epithelial tubular cells in the kidney ([2]; following SSK1 treatment): only a few cells of this tubular cell population was shown to be undergoing apoptosis
- System toxicity (serum biochemical test and routine blood analysis) ([2]; old mice, 0.5 mg/kg for 8 weeks, FIGS. 7A and B): no obvious system toxicity
- Body weight change (32 dpi vs 22 dpi %) ([3]; RM4 young 1-year, 0.5 mg/kg): +25.00%
- Body weight change (32 dpi vs 22 dpi %) ([3]; RM5 adult 5-year, 0.5 mg/kg): −3.45%
- Body weight change (32 dpi vs 22 dpi %) ([3]; RM6 old 17-year, 0.5 mg/kg): −1.25%
- Body weight change (32 dpi vs 22 dpi %) ([3]; RM7 young 1-year, 2.0 mg/kg): +12.50%
- Body weight change (32 dpi vs 22 dpi %) ([3]; RM8 adult 5-year, 2.0 mg/kg): +9.68%
- Body weight change (32 dpi vs 22 dpi %) ([3]; RM9 old 18-year, 2.0 mg/kg): +1.82%
- Body weight loss ([3]; SSK1 0.5 or 2.0 mg/kg, 22 to 32 dpi): effectively prevented body weight loss
- Pulmonary histology assessment (histologic lesions) ([3]; SSK1-treated animals vs vehicle): reduction in histologic lesions
- Diseased phenotype of lung sections (thickened alveolar septum, edema, hemorrhage; H&E staining) ([3]; SSK1-treated group vs vehicle): greatly improved
- Inflammatory cytokines in blood including IL-6, IL-8, IL-10, IL-15, TGF-α and MCP1 ([3]; SSK1-treated old monkeys, especially at 2 mg/kg): reduced at 28 dpi compared with 21 dpi
- Serum level of IL-18 ([3]; all high-dosage (2.0 mg/kg) SSK1-treated monkeys): increased level
- New lung lesions at necropsy ([3]; all six SSK1-treated monkeys): only found one exhibiting new lung lesions
- Macrophage infiltration in lung (CD68 immunohistochemistry) ([3]; especially at high dosages, in the elderly group): significantly reduced macrophage infiltration
- Adverse effects ([3]; treated monkeys): did not observe any adverse effects
